# Reference: patent publication US6642227B2, “Inhibitors of c-Jun N-terminal kinases (JNK) and other protein kinases” (Vertex Pharmaceuticals Incorporated, priority 2001, dated 2003)
# Target: T1, activated JNK3 (Homo sapiens, UniProt P53779)
# T1 construct: One such construct encodes amino acid residues Ser40-Glu402 of JNK3α1 and is preceded by Met and Gly residues; Met-Gly dipeptide (initiator Met plus Gly added for the NcoI site) (N); made in house; host or cells: E. coli BL21 (DE3)
# Assay: JNK inhibition assay (spectrophotometric coupled-enzyme assay)
# Type: biochemical
# Details: activated JNK3 10 nM, 10 μM ATP, 30° C.; read-out: JNK3 Activity (Ki class A-C)
# Description: A BLAST search of the EST database using the published JNK3α1 cDNA as a query identified an EST clone (#632588) that contained the entire coding sequence for human JNK3α1. Polymerase chain reactions (PCR) using pfu polymerase (Strategene) were used to introduce restriction sites into the cDNA for cloning into the pET-15B expression vector at the NcoI and BamHI sites. The protein was expressed in E. coli. Due to the poor solubility of the expressed full-length protein (Met 1-Gln 422), an N-terminally truncated protein starting at Ser residue at position 40 (Ser 40) was produced. This truncation corresponds to Ser 2 of JNK1 and JNK2 proteins, and is preceded by a methionine (initiation) and a glycine residue. The glycine residue was added in order to introduce an NcoI site for cloning into the expression vector. In addition, systematic C-terminal truncations were performed by PCR to identify a construct that give rise to diffraction-quality crystals. One such construct encodes amino acid residues Ser40-Glu402 of JNK3α1 and is preceded by Met and Gly residues.
# The construct was prepared by PCR using deoxyoligonucleotides: 5′ […] 3′ (forward primer with initiation codon underlined)(SEQ ID NO:1) and 5′ […] 3′ (reverse primer with stop codon underlined)(SEQ ID NO:2) as primers and was confirmed by DNA sequencing.
# E.coli strain BL21 (DE3) (Novagen) was transformed with the JNK3 expression construct and grown at 30° C. in LB supplemented with 100 μg/ml carbenicillin in shaker flasks until the cells were in log phase (OD600˜0.8). Isopropylthio-β-D-[…] (IPTG) was added to a final concentration of 0.8 mM and the cells were harvested 2 hours later by centrifugation.
# E. coli cell paste containing JNK3 was resuspended in 10 volumes/g lysis buffer (50 mM HEPES, pH 7.2, containing 10% glycerol (v/v), 100 mM NaCl, 2 mM DTT, 0.1 mM PMSF, 2 μg/ml Pepstatin, lug/ml each of E-64 and Leupeptin). Cells were lysed on ice using a microfluidizer and centrifuged at 100,000×g for 30 min at 4° C. The 100,000×g supernatant was diluted 1:5 with Buffer A (20 mM HEPES, pH 7.0, 10% glycerol (v/v), 2 mM DTT) and purified by SP-Sepharose (Pharmacia) cation-exchange chromatography (column dimensions: 2.6×20 cm) at 4° C. The resin was washed with 5 column volumes of Buffer A, followed by 5 column volumes of Buffer A containing 50 mM NaCl. Bound JNK3 was eluted with a 7.5 column volume linear gradient of 50-300 mM NaCl. JNK3 eluted between 150-200 mM NaCl.
# Five mg of JNK3 was diluted to 0.5 mg/ml in 50 mM HEPES buffer, pH 7.5, containing 100 mM NaCl, 5 mM DTT, 20 mM MgCl2 and 1 mM ATP. GST-MKK7(DD) was added at a molar ratio of 1:2.5 GST-MKK7:JNK3. After incubation for 30 minutes at 25° C., the reaction mixture was concentrated 5-fold by ultrafiltration in a Centriprep-30 (Amicon, Beverly, Mass.), diluted to 10 ml and an additional 1 mM ATP added. This procedure was repeated three times to remove ADP and replenish ATP. The final addition of ATP was 5 mM and the mixture incubated overnight at 4° C.
# The activated JNK3/GST-MKK7(DD) reaction mixture was exchanged into 50 mM HEPES buffer, pH 7.5, containing 5 mM DTT and 5% glycerol (w/v) by dialysis or ultrafiltration. The reaction mixture was adjusted to 1.1 M potassium phosphate, pH 7.5, and purified by hydrophobic interaction chromatography (at 25° C.) using a Rainin Hydropore column. […] Activated JNK3 (i.e. doubly phosphorylated JNK3) was stored at −70° C. at 0.25-1 mg/ml.
# Compounds were assayed for the inhibition of JNK3 by a spectrophotometric coupled-enzyme assay. In this assay, a fixed concentration of activated JNK3 (10 nM) was incubated with various concentrations of a potential inhibitor dissolved in DMSO for 10 minutes at 30° C. in a buffer containing 0.1 M HEPES buffer, pH 7.5, containing 10 mM MgCl2, 2.5 mM phosphoenolpyruvate, 200 μM NADH, 150 μg/mL pyruvate kinase, 50 μg/mL lactate dehydrogenase, and 200 μM EGF receptor peptide. […]
# T1 sequence (P53779 40-402): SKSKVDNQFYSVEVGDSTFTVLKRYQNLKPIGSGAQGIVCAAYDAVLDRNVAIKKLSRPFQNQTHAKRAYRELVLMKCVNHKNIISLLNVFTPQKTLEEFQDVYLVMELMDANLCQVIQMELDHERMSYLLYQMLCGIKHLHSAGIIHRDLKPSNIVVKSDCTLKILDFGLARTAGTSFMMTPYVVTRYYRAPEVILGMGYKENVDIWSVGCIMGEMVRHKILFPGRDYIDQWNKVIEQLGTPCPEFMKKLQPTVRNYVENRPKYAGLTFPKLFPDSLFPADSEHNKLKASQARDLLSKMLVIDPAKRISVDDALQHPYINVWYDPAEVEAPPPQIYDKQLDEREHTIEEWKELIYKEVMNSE
row,Ki [nM],SMILES
1,< 100,"CSc1sc(-c2ccnc(Nc3ccccc3)n2)c(-c2ccc(Cl)cc2)c1C#N [IIa-10, 2-Methylsulfanyl-5-(2-phenylamino-pyrimidin-4-yl)-4-(4-chloro-phenyl)-thiophene-3-carbonitrile]"
2,< 100,"CCOc1sc(-c2ccnc(Nc3ccccc3)n2)c(-c2ccc(Cl)cc2)c1C#N [IIa-11, 2-Ethoxy-5-(2-phenylamino-pyrimidin-4-yl)-4-(4-chloro-phenyl)-thiophene-3-carbonitrile]"
3,< 100,"CSc1sc(-c2ccnc(Nc3ccccc3)n2)c(-c2ccc(C)cc2)c1C#N [IIa-14, 2-Methylsulfanyl-5-(2-phenylamino-pyrimidin-4-yl)-4-p-tolyl-thiophene-3-carbonitrile]"
4,< 100,"CCOc1sc(-c2ccnc(Nc3ccccc3)n2)c(-c2ccc(C)cc2)c1C#N [IIa-15, 2-Ethoxy-5-(2-phenylamino-pyrimidin-4-yl)-4-p-tolyl-thiophene-3-carbonitrile]"
